Reference: article PMC10535717, “A Novel Antimicrobial Peptide, Dermaseptin-SS1, with Anti-Proliferative Activity, Isolated from the Skin Secretion of Phyllomedusa tarsius” (Molecules, 2023)
Ends that are not written are not given here.

Tests used:
[1] = test system: MRSA NCTC 12493; format: cell-based, Methicillin-resistant Staphylococcus aureus
Description: (§1) The anti-planktonic microorganism efficacy of the peptides was investigated via minimal bacterial inhibitory concentration (MIC) and minimal bactericidal concentration (MBC) assays. Eight types of microorganisms, including Gram-positive bacteria, Staphylococcus aureus (ATCC CRM 6538), Methicillin-resistant Staphylococcus aureus (NCTC 12493), and Enterococcus faecium (NCTC 12697), Gram-negative bacteria, Escherichia coli (ATCC CRM 8739, ATCC BAA 2340, ATCC 13846, ATCC BAA 2469, and ATCC BAA 2471), Klebsiella pneumoniae (ATCC 43816), Pseudomonas aeruginosa (ATCC CRM 9027) and Acinetobacter baumannii (ATCC BAA 747) and a yeast, Candida albicans (ATCC CRM 10231) were utilized to test the antimicrobial activity of peptides.
(§2) For the MIC assay, microorganisms were inoculated with peptides in a 96-well plate. Nutrient broth (NB) was applied for MRSA, E. coli, K. pneumoniae, and P. aeruginosa, tryptic soy broth (TSB) was applied for S. aureus, E. faecium, and A. baumannii, and yeast extract peptone dextrose broth (YPD-B) was used for C. albicans. The microorganisms were cultured (bacteria: 37 °C; yeast: 26 °C) overnight at 120 rpm and subcultured to achieve the logarithmic growth stage (5 × 10^5 CFU/mL), as confirmed by viable cell counts. After that, 99 µL of the subculture and 1 µL of the peptide were added to the 96-well plate. The final concentration of peptides ranged from 128 to 1 µmol/L (µM) using a 2-fold dilution. In addition, four other groups were established simultaneously at the commencement of the test: a growth control group, a vehicle control group (Dimethyl Sulphoxide, DMSO), a positive control group utilizing Norfloxacin at a concentration of 2 mg/mL for bacteria, and Amphotericin B. at a concentration of 1 mg/mL for yeast, and a blank control group (sterile NB/TSB/YPD-B). The MIC values were measured after overnight incubation at 37/26 °C. The optical density (OD) values were analysed at 550 nm using a Synergy HT plate reader (BioTek, Washington, USA), and were calculated using the following equation:(1) Cell Viability %=[(As−A0)/(Ag−A0)]×100% where As is the absorbance value of the sample group, A0 is the average of the absorbance values of the blank control, and Ag is the average of the absorbance values of the growth control. For the MBC assay, 10 µL of the inhibited cultures on the 96-well plate were transferred onto a corresponding medium agar plate and incubated overnight at 37/26 °C to measure MBC values. The results were obtained from three independent assays.

[2] = test system: C. albicans ATCC CRM 10231; format: cell-based, Candida albicans; conditions: for MBC / MIC: ATCC CRM 10231
Description: as §1, §2

[3] = test system: E. faecalis NCTC 12697; format: cell-based
[4] = test system: horse erythrocytes; test: Haemolysis activity; format: cell-based; conditions: concentration causing 50% haemolysis; 4% (v/v) horse red blood cells in PBS, peptide 128 to 1 µM, 37 °C 2 h, OD 570 nm, 1% Triton X-100 positive control, three separate assays
Method: To start, fresh defibrinated horse blood (TCS Biosciences Ltd., Buckingham, UK) was washed with PBS solution to obtain a clear supernatant. Then, a 4% (v/v) suspension of red blood cells was made in PBS. After this, 100 µL of the peptide solutions were incubated with 100 µL of the suspension of red blood cells in 2 mL centrifuge tubes at 37 °C for 2 h. The ultimate concentration of peptides ranged from 128 to 1 µM obtained by a 2-fold dilution. Also, two other groups were set simultaneously, including a positive control group of 1% Triton X-100 and a blank control group of phosphate-buffered saline (PBS). After incubation and centrifugation at 900× g for 10 min, a volume of 100 µL of the resulting supernatant from each specimen was carefully transferred to individual wells of the 96-well plate. Subsequently, the OD values were analysed using a Synergy HT plate reader (BioTek, USA) at a wavelength of 570 nm using the following equation:(2) Haemolysis Activity %=[(As−A0)/(Ap−A0)]×100% where As is the absorbance value of the supernatant of the peptide group, A0 is the average absorbance value of the blank control, and Ap is the average absorbance value of the positive control. The data were obtained from three separate assays.

[5] = test system: A. baumannii ATCC BAA 747; format: cell-based, Acinetobacter baumannii
Description: as §1, §2

[6] = test system: P. aeruginosa ATCC CRM 9027; format: cell-based, Pseudomonas aeruginosa
Description: as §1, §2

[7] = test system: S. aureus ATCC CRM 6538; format: cell-based, Staphylococcus aureus
Description: as §1, §2

[8] = test system: E. coli NCTC 13846; format: cell-based, Escherichia coli
Description: as §1, §2

[9] = test system: E. coli ATCC BAA 2340; format: cell-based, Escherichia coli; conditions: KPC strain, overnight 37 °C, three independent assays; for MIC: NB, 5 × 10^5 CFU/mL, OD 550 nm; for MBC: agar plate
Description: as §1, §2

[10] = test system: E. coli ATCC BAA 2469; format: cell-based, Escherichia coli; conditions: NDM-1 strain, overnight 37 °C, three independent assays; for MIC: NB, 5 × 10^5 CFU/mL, OD 550 nm; for MBC: agar plate
Description: as §1, §2

[11] = test system: E. coli ATCC BAA 2471; format: cell-based, Escherichia coli; conditions: NDM-1 strain, overnight 37 °C, three independent assays; for MIC: NB, 5 × 10^5 CFU/mL, OD 550 nm; for MBC: agar plate
Description: as §1, §2

[12] = test system: E. coli ATCC CRM 8739; format: cell-based, Escherichia coli
Description: as §1, §2

[13] = test system: K. pneumoniae ATCC 43816; format: cell-based, Klebsiella pneumoniae
Description: as §1, §2

[14] = Log P of the amino acid as quoted in the discussion; source and method not given; cited from earlier work
Description: The predicted information from HeliQuest referred to the design of analogues (Figure 2). The first modification step was designed to increase hydrophobic characteristics and decrease helicity. […] The ...

[15] = test system: Gram-positive bacteria; test: Geometric mean of MICs and therapeutic index, Gram +; format: cell-based; conditions: geometric mean of MICs of Table 3; 256.00 μM used where no activity at 128.00 μM
Description: as §1
(§3) For the MIC assay, microorganisms were inoculated with peptides in a 96-well plate. […] The MIC values were measured after overnight incubation at 37/26 °C. The optical density (OD) values were analysed at 550 nm using a Synergy HT plate reader (BioTek, Washington, USA), and were calculated using the following equation:(1) Cell Viability %=[(As−A0)/(Ag−A0)]×100% where As is the absorbance value of the sample group, A0 is the average of the absorbance values of the blank control, and Ag is the average of the absorbance values of the growth control. […]

[16] = test system: Gram-negative bacteria; test: Geometric mean of MICs and therapeutic index, Gram −; format: cell-based; conditions: geometric mean of MICs of Table 3; 256.00 μM used where no activity at 128.00 μM
Description: as §1, §3

ALWKSILKNAGKAALNEINQIVQ-NH2 [SS1]
MBC [1]: >128 µM
MIC [1]: >128 µM
MBC [2]: >128 µM
MIC [2]: >128 µM
MBC [3]: >128 µM
MIC [3]: >128 µM
HC50 [4]: 256.00 µM
MBC [5]: 16 µM
MIC [5]: 16 µM
MBC [6]: 32 µM
MIC [6]: 32 µM
MBC [7]: 8 µM
MIC [7]: 8 µM
MBC [8]: 8 µM
MIC [8]: 8 µM
MIC [9]: 4 µM
MBC [9]: 4 µM
MIC [10]: 4 µM
MBC [10]: 4 µM
MIC [11]: 8 µM
MBC [11]: 8 µM
MBC [12]: 4 µM
MIC [12]: 2 µM
MBC [13]: 16 µM
MIC [13]: 16 µM

ALWKSILKNAGKAVLNEINQIVQ-NH2 [Peptide 14V]
MBC [1]: 8 µM
MIC [1]: 8 µM
MBC [2]: >128 µM
MIC [2]: >128 µM
MBC [3]: >128 µM
MIC [3]: >128 µM
HC50 [4]: 256.00
MBC [5]: 4 µM
MIC [5]: 4 µM
MBC [6]: > 128 µM
MIC [6]: 16 µM
MBC [7]: 4 µM
MIC [7]: 4 µM
MBC [12]: 2 µM
MIC [12]: 2 µM
MBC [13]: 8 µM
MIC [13]: 8 µM

C[C@H](N)C(=O)O [Alanine]
Log P [14]: 3.54

ALWKSILKNVGKVLNEINQIVQ-NH2 [Peptide L2V]
MBC [1]: 4 µM
MIC [1]: 4 µM
MBC [2]: >128 µM
MIC [2]: >128 µM
GM Yeast ([2]; geometric mean of MICs of Table 3, 256.00 μM used where no activity at 128.00 μM): 256.00 µM
GM Gram + [15]: 64.00 µM
MBC [3]: >128 µM
MIC [3]: >128 µM
HC50 [4]: 256.00
MBC [5]: 4 µM
MIC [5]: 4 µM
MBC [6]: >128 µM
MIC [6]: >128 µM
MBC [7]: >128 µM
MIC [7]: >128 µM
MBC [12]: >128 µM
MIC [12]: >128 µM
MBC [13]: > 128 µM
MIC [13]: 8 µM
GM Gram − [16]: 38.05 µM

N[C@@H](CO)C(=O)O [serine]
Log P [14]: 2.66

CC(C)[C@H](N)C(=O)O [Valine]
Log P [14]: 4.42

NC(=O)CC[C@H](N)C(=O)O [Glutamine]
Log P [14]: 3.19

ALWKSILKNAGKALNEINQIVQ-NH2 [Peptide L14]
MBC [1]: 32 µM
MIC [1]: 32 µM
MBC [2]: >128 µM
MIC [2]: >128 µM
MBC [3]: >128 µM
MIC [3]: >128 µM
HC50 [4]: 256.00
MBC [5]: > 128 µM
MIC [5]: 32 µM
MBC [6]: > 128 µM
MIC [6]: 16 µM
MBC [7]: >128 µM
MIC [7]: >128 µM
MBC [12]: 4 µM
MIC [12]: 4 µM
MBC [13]: 16 µM
MIC [13]: 16 µM

ALWKSILKNAGKAGLNEINQIVQ-NH2 [Peptide 14G]
MBC [1]: >128 µM
MIC [1]: >128 µM
MBC [2]: >128 µM
MIC [2]: >128 µM
MBC [3]: >128 µM
MIC [3]: >128 µM
HC50 [4]: 256.00
MBC [5]: >128 µM
MIC [5]: >128 µM
MBC [6]: > 128 µM
MIC [6]: 32 µM
MBC [7]: >128 µM
MIC [7]: >128 µM
MBC [12]: 16 µM
MIC [12]: 16 µM
MBC [13]: >128 µM
MIC [13]: >128 µM

NCC(=O)O [Glycine]
Log P [14]: 3.20

ALWKSILKNAGKAVLNEINQIV-NH2 [Peptide 14VL23]
MBC [1]: >128 µM
MIC [1]: >128 µM
MBC [2]: >128 µM
MIC [2]: >128 µM
MBC [3]: >128 µM
MIC [3]: >128 µM
HC50 [4]: 256.00
MBC [5]: >128 µM
MIC [5]: >128 µM
MBC [6]: >128 µM
MIC [6]: >128 µM
MBC [7]: >128 µM
MIC [7]: >128 µM
MBC [12]: 16 µM
MIC [12]: 8 µM
MBC [13]: 4 µM
MIC [13]: 4 µM

ALWKKILKNAGKAVLNEINQIVQ-NH2 [Peptide 14V5K]
MBC [1]: 4 µM
MIC [1]: 4 µM
MBC [2]: 8 µM
MIC [2]: 8 µM
time to eradicate bacteria: < 10 min
MBC [3]: >128 µM
MIC [3]: >128 µM
HC50 [4]: 256.00
MBC [5]: 8 µM
MIC [5]: 8 µM
MBC [6]: 8 µM
MIC [6]: 8 µM
MBC [7]: 4 µM
MIC [7]: 4 µM
MBC [8]: 4 µM
MIC [8]: 4 µM
MIC [9]: 2 µM
MBC [9]: 2 µM
MIC [10]: 1 µM
MBC [10]: 2 µM
MIC [11]: 1 µM
MBC [11]: 2 µM
MBC [12]: 2 µM
MIC [12]: 2 µM
MBC [13]: 2 µM
MIC [13]: 2 µM
